Assay results reported in PubChem BioAssay (NCI).
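Grown in 96-well plates, cells were treated for 48 hours with each compound at five concentrations. Insufficient inhibition: endpoint recorded as highest concentration tested. TGI: concentration producing complete growth inhibition.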

Legend:
Assay in all cases: NCI anticancer screen, dose series, 48 h
786-0 renal = tested on: 786-0 renal
COLO 205 colon = tested on: COLO 205 colon
DU-145 prostate = tested on: DU-145 prostate
K-562 leukemia = tested on: K-562 leukemia
NCI-H522 lung = tested on: NCI-H522 lung
OVCAR-3 ovarian = tested on: OVCAR-3 ovarian
PC-3 prostate = tested on: PC-3 prostate
SK-MEL-2 melanoma = tested on: SK-MEL-2 melanoma
SN12C renal = tested on: SN12C renal
SNB-75 CNS = tested on: SNB-75 CNS

| SMILES | TGI (786-0 renal) [µM] | TGI (COLO 205 colon) [µM] | TGI (DU-145 prostate) [µM] | TGI (K-562 leukemia) [µM] | TGI (NCI-H522 lung) [µM] | TGI (OVCAR-3 ovarian) [µM] | TGI (PC-3 prostate) [µM] | TGI (SK-MEL-2 melanoma) [µM] | TGI (SN12C renal) [µM] | TGI (SNB-75 CNS) [µM] |
| --- | --- | --- | --- | --- | --- | --- | --- | --- | --- | --- |
| CSc1c(C(C)=O)c(O)n(-c2ccc(Cl)cc2)c(=O)c1C#N | > 100 | 65.6 | > 100 | 92.2 | 21.9 | > 100 | > 100 | > 100 | > 100 | > 100 |
| CCOC(=O)CCC(NC(=O)OCc1ccccc1)C(=O)NNC(=O)OC(C)(C)C (stereo not given) | > 100 | > 100 | > 100 | > 100 | > 100 | > 100 | > 100 | > 100 | > 100 | > 100 |
| CC(=O)N(C(C)=O)n1c(Cc2ccc(Cl)cc2)nn(C(C)=O)c1=O | > 100 | > 100 | > 100 | > 100 | > 100 | > 100 | > 100 | > 100 | > 100 | > 100 |
| Cc1ccc(-c2cc(-c3ccc(Cl)cc3)nc(/N=C3\C(=O)N(CN4CCCCC4)c4ccc(Cl)cc43)n2)cc1 | 44.6 | 80.5 | > 100 | > 100 | 27.8 | > 100 | > 100 | 39.3 | 62.3 | > 100 |
| CCCCn1cc(C(=O)O)c(=O)c2c3sccc3ccc21 | > 100 | > 100 | > 100 | > 100 | > 100 | > 100 | > 100 | > 100 | > 100 | > 100 |
| O=C(C[C@@H]1NCCC[C@H]1O)Cn1cnc2cc(Br)c(Cl)cc2c1=O | 0.135 | 0.0391 | 0.0919 | 0.0727 | 0.169 | 0.9 | 1.4 | 0.05 | 0.0726 | 0.338 |
| COc1cn2c(cc1=O)COc1ccc(-c3ccccc3)cc1-2 | > 100 | > 100 | > 100 | > 100 | > 100 | 98.8 | > 100 | > 100 | > 100 | > 100 |
| Cc1cccc(NC(=O)CC(=O)N2N=C(N3c4ccccc4Sc4ccccc43)CC2c2ccccc2)c1 (stereo not given) | > 100 | > 100 | > 100 | > 100 | > 100 | > 100 | > 100 | > 100 | > 100 | > 100 |
